Test results taken from paper PMC8409435 (Journal of molecular biology, 2021).
Where no end group is shown, it is not given here.

Key:
[1] = molecular target: PKA-C^E31V (catalytic α subunit of cAMP-dependent protein kinase A) (Homo sapiens, UniProt P17612, E32V); assay: steady-state coupled enzyme assay; assay type: biochemical
[2] = molecular target: PKA-C^WT (catalytic α subunit of cAMP-dependent protein kinase A) (Homo sapiens, UniProt P17612); assay: steady-state coupled enzyme assay; assay type: biochemical

LRRASLG [Kemptide]
steady-state coupled enzyme assay (kcat/KM) [1]: 0.46 ± 0.04 | steady-state coupled enzyme assay (kcat/KM) [2]: 0.41 ± 0.05
